# In article PMC8786932, “Bicyclic azetidines target acute and chronic stages of Toxoplasma gondii by inhibiting parasite phenylalanyl t-RNA synthetase” (Nature Communications, 2022):
# “And” between values parts separate entries of the source, which are not always exact repeats. Equal values may be shown once.
# Assays:
# T. gondii RH-FLuc parent = test: Luciferase growth assay, parental line of resistance selection; type: cell-based, Toxoplasma gondii; conditions: for luciferase signal (raw): parent
# Description: […]. […] […].
# TgPheRS V262A M484I = target: T1, TgPheRS V262A M484I (Toxoplasma gondii, UniProt A0A125YPN6, M484I/V262A); test: Enzyme assay, TgPheRS V262A M484I double mutant; type: biochemical; conditions: for enzyme assay readout (raw): V262A / M484I
# T1 sequence (A0A125YPN6 1-525 V262A/M484I): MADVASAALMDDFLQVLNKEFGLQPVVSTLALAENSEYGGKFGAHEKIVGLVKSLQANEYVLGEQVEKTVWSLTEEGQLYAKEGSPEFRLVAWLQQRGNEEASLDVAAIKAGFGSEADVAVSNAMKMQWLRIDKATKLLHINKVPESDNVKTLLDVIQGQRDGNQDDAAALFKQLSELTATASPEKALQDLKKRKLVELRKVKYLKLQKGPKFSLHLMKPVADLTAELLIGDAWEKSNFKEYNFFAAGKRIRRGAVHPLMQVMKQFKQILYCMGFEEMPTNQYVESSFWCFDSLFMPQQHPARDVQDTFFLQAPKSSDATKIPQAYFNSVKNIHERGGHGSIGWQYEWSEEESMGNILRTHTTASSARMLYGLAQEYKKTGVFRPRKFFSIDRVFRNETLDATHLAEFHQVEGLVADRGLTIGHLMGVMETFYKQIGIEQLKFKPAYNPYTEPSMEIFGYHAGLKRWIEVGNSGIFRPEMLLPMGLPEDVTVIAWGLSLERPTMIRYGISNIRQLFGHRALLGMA
# T1 sequence (S8EZ50 1-675 partner): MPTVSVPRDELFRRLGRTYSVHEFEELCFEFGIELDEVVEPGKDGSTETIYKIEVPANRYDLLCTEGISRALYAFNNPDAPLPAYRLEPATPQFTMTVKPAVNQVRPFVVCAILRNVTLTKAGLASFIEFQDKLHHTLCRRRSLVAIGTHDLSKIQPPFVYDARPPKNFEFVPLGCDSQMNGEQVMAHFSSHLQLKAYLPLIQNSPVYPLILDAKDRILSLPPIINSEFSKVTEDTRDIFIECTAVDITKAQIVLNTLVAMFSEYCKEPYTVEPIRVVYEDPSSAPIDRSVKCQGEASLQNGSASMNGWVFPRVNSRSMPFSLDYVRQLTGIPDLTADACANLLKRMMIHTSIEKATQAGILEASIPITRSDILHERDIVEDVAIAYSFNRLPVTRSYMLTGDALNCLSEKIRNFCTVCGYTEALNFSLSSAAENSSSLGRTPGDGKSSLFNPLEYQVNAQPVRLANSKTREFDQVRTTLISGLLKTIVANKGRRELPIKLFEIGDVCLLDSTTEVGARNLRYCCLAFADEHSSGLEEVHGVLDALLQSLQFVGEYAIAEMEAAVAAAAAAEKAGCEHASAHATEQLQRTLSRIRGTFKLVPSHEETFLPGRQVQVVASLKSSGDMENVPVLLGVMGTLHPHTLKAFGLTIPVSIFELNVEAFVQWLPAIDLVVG
# [1] = system: T. gondii residual infection; test: ELISA of survivors and bioassay of brain homogenate into naive recipient mice; type: in vivo, Ifngr1-/- mice
# Procedure: Testing of compounds to prevent reactivation of chronic infection was […] to test the efficacy of PheRS inhibitors against chronic infection. In both cases, male and female C57BL/6 Ifngr1^−/− mice were infected by oral gavage with 5 cysts of the ME49-Fluc strain isolated from chronically infected CBA/J mice. Compound BRD7929 was formulated at 1 mg/mL in freshly prepared compound resuspension buffer (vehicle; 10% ETOH, 4% Tween-80 in 1xPBS), aliquoted for single use and stored at −20 °C. In the first protocol, at 48 h post-infection, animals were given sulfadiazine (0.25 g/L in drinking water) for 20 days post-infection to prevent death during acute infection and to allow establishment of chronic infection. Two days after completion of the sulfadiazine treatment, one cohort of mice were treated once a day with 10 mg/kg BRD7929 by oral gavage for 16 days and control mice received an equal volume of vehicle during the same time frame. Animals were monitored for survival and weight loss for 30 days post-treatment. […] All mice were monitored for survival and weight loss every two days for the duration of treatment and for an additional >20 days post-treatment. […] Recipient mice were monitored for 20 days for survival, weight loss, and seroconversion by ELISA.
smiles,measurement,setting,value
COc1ccc(NC(=O)N2CCCCN3[C@H](CN(C)C)[C@H](c4ccc(C#Cc5ccccc5)cc4)[C@@H]3C2)cc1 [BRD7929],EC50,"T. gondii RH-FLuc parent; Toxoplasma gondii, read-out: EC50, parent RH-FLuc",14 nM
same,luciferase signal (raw),T. gondii RH-FLuc parent; concentration 2.222222,5 and 6 and 7 and 8
same,luciferase signal (raw),T. gondii RH-FLuc parent; concentration 6.666667,5 and 4 and 6
same,"luciferase signal (raw, Fig 3B source data)",T. gondii RH-FLuc parent; {},5
same,IC50,"TgPheRS V262A M484I; Table S4, V262A-M484I, read-out: IC50 (enzyme inhibition)",197 nM
same,enzyme assay readout (raw),TgPheRS V262A M484I; 0.000005 μM,0.3462 and 0.3680 and 0.4006
same,enzyme assay readout (raw),TgPheRS V262A M484I; 0.000050 μM,0.3131 and 0.3315 and 0.3158
same,enzyme assay readout (raw),TgPheRS V262A M484I; 0.000500 μM,0.3040 and 0.3143 and 0.2881
same,enzyme assay readout (raw),TgPheRS V262A M484I; 0.005000 μM,0.2789 and 0.2890 and 0.2929
same,enzyme assay readout (raw),TgPheRS V262A M484I; 0.050000 μM,0.2807 and 0.2760 and 0.2780
same,enzyme assay readout (raw),TgPheRS V262A M484I; 0.500000 μM,0.2333 and 0.2480 and 0.2628
same,enzyme assay readout (raw),TgPheRS V262A M484I; 5.000000 μM,0.2051 and 0.1829 and 0.2098
same,enzyme assay readout (raw),TgPheRS V262A M484I; 50.000000 μM,0.1004 and 0.1152 and 0.1172
same,bioassay of brains of surviving treated mice in naive recipients,"[1]; oral challenge model survivors, recipients monitored 20 days",All recipient mice survived and remained seronegative
same,bioassay of brain homogenate of the surviving animal,[1]; reactivation model survivor,failed to detect any residual infection
